Columns and labels:
[1] = system: CTLL-2 cells; assay type: cell-based
[2] = target: STING deletion mutant DN5 (162-N) (Homo sapiens, UniProt Q86WV6); assay type: binding
STING deletion mutant DN5 (162-N), sequence (Q86WV6 162-379, stated change not applied): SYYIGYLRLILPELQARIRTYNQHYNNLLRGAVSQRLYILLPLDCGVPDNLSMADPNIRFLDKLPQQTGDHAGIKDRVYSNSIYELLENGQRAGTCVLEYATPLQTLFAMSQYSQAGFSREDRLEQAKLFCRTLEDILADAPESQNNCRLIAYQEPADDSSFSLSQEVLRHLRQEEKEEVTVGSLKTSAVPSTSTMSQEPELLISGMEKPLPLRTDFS

## GLFGAIAGFIENGWEGCGGEKEKEK [IN F#2 dimer]
[1]
  proliferation of CTLL-2 cells: inhibits the proliferation of CTLL-2 cells
[2]
  pulldown of STING deletion mutant DN5 (162-N) by biotinylated peptide: readily pulled down

From US20160166676A1 (priority 2013, published 2016)
